From DBAASP
Values after ≈ are worked out from the molar mass of the structure shown.

How the values were obtained:
Experiment in all cases: ≥ marks a high value that may be exact or a test limit, other limits are often not marked, values filed in µg/mL are converted to µM
[1] = tested on: Yersinia pseudotuberculosis YPIII
[2] = tested on: Escherichia coli ATCC 25922
[3] = tested on: Staphylococcus aureus Cowan 1
[4] = tested on: Candida albicans ATCC 10231
Staphylococcus capitis 1 = tested on: Staphylococcus capitis 1
Bacillus megaterium Bm11 = tested on: Bacillus megaterium Bm11
[5] = tested on: Staphylococcus haemolyticus
Staphylococcus aureus = tested on: Staphylococcus aureus
[6] = tested on: Pseudomonas aeruginosa 253
[7] = tested on: Pseudomonas aeruginosa 910
[8] = tested on: Pseudomonas aeruginosa 919
[9] = tested on: Pseudomonas aeruginosa PAO1
[10] = tested on: Klebsiella pneumoniae ATCC BAA-1705
Escherichia coli W3110 = tested on: Escherichia coli W3110
[11] = tested on: Enterococcus faecalis ATCC 29212
[12] = tested on: Pseudomonas aeruginosa ATCC 27853
[13] = tested on: Bacillus subtilis ATCC 6633
[14] = tested on: Staphylococcus epidermidis C621
[15] = tested on: Staphylococcus aureus ATCC 25923
Escherichia coli UB1005 = tested on: Escherichia coli UB1005
[16] = tested on: Bacillus subtilis KCTC 1918
[17] = tested on: Escherichia coli KCTC 1682
[18] = tested on: Candida albicans TIMM 1768
[19] = tested on: Salmonella typhimurium KCTC 1926
[20] = tested on: Trichosporon beigelii KCTC 7707
[21] = tested on: Pseudomonas aeruginosa KCTC 1637
[22] = tested on: Staphylococcus aureus KCTC 1621
[23] = tested on: Staphylococcus aureus ATCC 29213
[24] = tested on: Candida albicans ATCC 37092
Escherichia coli HB101 = tested on: Escherichia coli HB101
[25] = tested on: Staphylococcus aureus ATCC 9144
[26] = tested on: Corynebacterium glutamicum ATCC 13032

For `CC[C@H](C)[C@H](NC(=O)CNC(=O)[C@H](CO)NC(=O)[C@H](CC(C)C)NC(=O)[C@@H](NC(=O)[C@H](CCCN=C(N)N)NC(=O)[C@H](C)NC(=O)[C@@H](NC(=O)[C@H](CC(C)C)NC(=O)[C@@H]1CCCN1C(=O)[C@H](CC(C)C)NC(=O)[C@@H](N)Cc1ccccc1)[C@@H](C)CC)C(C)C)C(=O)N[C@@H](CC(C)C)C(N)=O` [FLPLIARVLSGIL], the MIC [1] was 20 µM (≈ 28.2 µg/mL), the MIC [2] was over 40 µM and the MIC [3] was 2.5 µM (≈ 3.53 µg/mL). For the same compound, the MIC [4] was 2.5 µM (≈ 3.53 µg/mL), the MIC (Staphylococcus capitis 1) was 5 µM (≈ 7.05 µg/mL) and the MIC (Bacillus megaterium Bm11) was 2.5 µM (≈ 3.53 µg/mL).

In the case of `CC(C)C[C@H](NC(=O)CNC(=O)CNC(=O)[C@H](C)NC(=O)[C@@H](NC(=O)[C@H](CC(N)=O)NC(=O)[C@H](CC(C)C)NC(=O)[C@H](CC(C)C)NC(=O)[C@H](CC(=O)O)NC(=O)[C@@H](NC(=O)[C@@H](NC(=O)[C@@H](NC(=O)CN)C(C)C)C(C)C)[C@@H](C)O)[C@@H](C)O)C(=O)N[C@@H](CC(C)C)C(=O)NCC(=O)N[C@@H](CC(N)=O)C(=O)N[C@@H](CC(C)C)C(=O)N[C@H](C(=O)NCC(=O)N[C@@H](CO)C(=O)N[C@@H](CC(C)C)C(=O)N[C@@H](CO)C(=O)NCC(N)=O)C(C)C` [GVVTDLLNTAGGLLGNLVGSLSG], the MIC [5] is reported as at least 400 µM and the MIC (Staphylococcus aureus) is reported as 300 µM (≈ 638 µg/mL).

Work on `CC[C@H](C)[C@H](N)C(=O)N[C@@H](CC(C)C)C(=O)N[C@@H](CCCCN)C(=O)N[C@@H](Cc1c[nH]c2ccccc12)C(=O)N[C@@H](CCCCN)C(=O)N[C@@H](CCSC)C(=O)N[C@@H](Cc1ccccc1)C(=O)N[C@@H](CCCCN)C(=O)N[C@@H](Cc1c[nH]c2ccccc12)C(=O)N[C@@H](CCCCN)C(=O)N[C@@H](Cc1c[nH]c2ccccc12)C(=O)N[C@@H](Cc1ccccc1)C(=O)N[C@@H](CCCN=C(N)N)C(N)=O` [ILKWKMFKWKWFR] yielded an MIC [6] of 16 µM (≈ 30.3 µg/mL), an MIC [7] of 4 µM (≈ 7.59 µg/mL) and an MIC [8] of 16 µM (≈ 30.3 µg/mL). It also gave an MIC [9] of 2 µM (≈ 3.79 µg/mL).

Compound `CC[C@H](C)[C@H](N)C(=O)N[C@@H](Cc1c[nH]c2ccccc12)C(=O)N[C@@H](Cc1c[nH]c2ccccc12)C(=O)N[C@@H](C)C(=O)N[C@@H](CCCCN)C(=O)N[C@@H](CC(C)C)C(=O)NCC(=O)N[C@@H](CC(C)C)C(=O)N[C@@H](CCCCN)C(=O)N[C@@H](CC(C)C)C(=O)N[C@@H](CC(C)C)C(=O)N[C@@H](CCCN=C(N)N)C(=O)N[C@@H](Cc1ccc(O)cc1)C(=O)N[C@@H](CCCN=C(N)N)C(=O)N[C@@H](CCCN=C(N)N)C(=O)N[C@@H](Cc1c[nH]c2ccccc12)C(=O)N[C@@H](Cc1ccc(O)cc1)C(=O)O` [IWWAKLGLKLLRYRRWY] has an MIC [10] of 4 µM (≈ 9.29 µg/mL) and an MIC (Escherichia coli W3110) of 2 µM (≈ 4.64 µg/mL).

`CC[C@H](C)[C@H](N)C(=O)N[C@@H](Cc1c[nH]c2ccccc12)C(=O)N[C@@H](Cc1c[nH]c2ccccc12)C(=O)N[C@@H](C)C(=O)N[C@@H](CCCCN)C(=O)N[C@@H](Cc1c[nH]c2ccccc12)C(=O)NCC(=O)N[C@@H](CC(C)C)C(=O)N[C@@H](CCCCN)C(=O)N[C@@H](CC(C)C)C(=O)N[C@@H](CC(C)C)C(=O)N[C@@H](CCCN=C(N)N)C(=O)N[C@@H](Cc1ccc(O)cc1)C(=O)N[C@@H](CCCN=C(N)N)C(=O)N[C@@H](CCCN=C(N)N)C(=O)N[C@H](C(=O)N[C@@H](Cc1c[nH]c2ccccc12)C(=O)O)[C@@H](C)CC` [IWWAKWGLKLLRYRRIW] showed an MIC [10] of at least 32 µM and an MIC (Escherichia coli W3110) of 4 µM (≈ 9.38 µg/mL).

In the case of `C[C@H](NC(=O)[C@H](C)NC(=O)[C@H](C)NC(=O)[C@H](CCCCN)NC(=O)[C@@H](N)CCCCN)C(=O)N[C@@H](C)C(=O)N[C@@H](Cc1ccccc1)C(=O)N[C@@H](C)C(=O)N[C@@H](C)C(=O)N[C@@H](Cc1ccccc1)C(=O)N[C@@H](C)C(=O)N[C@@H](C)C(=O)N[C@@H](Cc1c[nH]c2ccccc12)C(=O)N[C@@H](Cc1ccccc1)C(=O)N[C@@H](C)C(=O)N[C@@H](C)C(=O)N[C@@H](Cc1ccccc1)C(=O)N[C@@H](C)C(=O)N[C@@H](C)C(=O)N[C@@H](C)C(=O)N[C@@H](C)C(=O)N[C@@H](CCCCN)C(=O)N[C@@H](CCCCN)C(=O)N[C@@H](CCCCN)C(=O)N[C@@H](CCCCN)C(N)=O` [KKAAAAFAAFAAWFAAFAAAAKKKK], the MIC [11] is reported as over 32 µM, the MIC [2] is reported as 16 µM (≈ 40.9 µg/mL) and the MIC [12] is reported as 8 µM (≈ 20.4 µg/mL). It also gave an MIC [13] of 2 µM (≈ 5.11 µg/mL), an MIC [14] of 4 µM (≈ 10.2 µg/mL) and an MIC [15] of 32 µM (≈ 81.8 µg/mL). For the same compound, the MIC (Escherichia coli UB1005) was 8 µM (≈ 20.4 µg/mL).

`CC(C)C[C@H](NC(=O)[C@H](CCCCN)NC(=O)[C@H](CCCCN)NC(=O)[C@H](CC(C)C)NC(=O)[C@H](CC(C)C)NC(=O)[C@H](CCCCN)NC(=O)[C@H](CCCCN)NC(=O)[C@H](CC(C)C)NC(=O)[C@H](CC(C)C)NC(=O)[C@@H]1CCCN1C(=O)[C@H](CCCCN)NC(=O)[C@H](CCCCN)NC(=O)[C@H](Cc1c[nH]c2ccccc12)NC(=O)[C@@H](N)CCCCN)C(N)=O` [KWKKPLLKKLLKKL] showed an MIC [16] of 3.12 µM (≈ 5.5 µg/mL), an MIC [17] of 6.25 µM (≈ 11 µg/mL) and an MIC [18] of 12.5 µM (≈ 22 µg/mL). For the same compound, the MIC [19] was 1.56 µM (≈ 2.75 µg/mL), the MIC [20] was 1.56 µM (≈ 2.75 µg/mL) and the MIC [21] was 3.12 µM (≈ 5.5 µg/mL). It also gave an MIC [22] of 6.25 µM (≈ 11 µg/mL).

With `CC(C)C[C@H](NC(=O)[C@H](CCCN=C(N)N)NC(=O)[C@@H]1CCCN1C(=O)[C@@H]1CCCN1C(=O)[C@H](CCCN=C(N)N)NC(=O)[C@@H]1CCCN1)C(=O)N1CCC[C@H]1C(=O)N[C@@H](CCCN=C(N)N)C(=O)N1CCC[C@H]1C(=O)N[C@@H](CCCN=C(N)N)C(=O)N1CCC[C@H]1C(=O)N[C@@H](CCCN=C(N)N)C(=O)N1CCC[C@H]1C(=O)N[C@@H](CC(C)C)C(=O)N1CCC[C@H]1C(=O)N[C@@H](Cc1ccccc1)C(=O)N1CCC[C@H]1C(=O)N[C@@H](CCCN=C(N)N)C(=O)N1CCC[C@H]1C(=O)NCC(=O)O` [PRPPRLPRPRPRPLPFPRPG] the MIC [23] was over 500 µM, the MIC [2] was 18.1 µM (≈ 42.7 µg/mL) and the MIC [24] was 17.6 µM (≈ 41.5 µg/mL).

`CC[C@H](C)[C@H](NC(=O)[C@@H](NC(=O)[C@H](CCCN=C(N)N)NC(=O)[C@H](Cc1c[nH]c2ccccc12)NC(=O)[C@H](CCCN=C(N)N)NC(=O)[C@@H](N)CCCN=C(N)N)C(C)C)C(=O)N[C@H](C(=O)N[C@@H](CCCCN)C(=O)N[C@@H](Cc1c[nH]c2ccccc12)C(N)=O)C(C)C` [RRWRVIVKW] showed an MIC [6] of 8 µM (≈ 10.4 µg/mL), an MIC [7] of 4 µM (≈ 5.19 µg/mL) and an MIC [8] of 4 µM (≈ 5.19 µg/mL). For the same compound, the MIC [9] was 4 µM (≈ 5.19 µg/mL).

With `CC[C@H](C)[C@H](NC(=O)[C@@H]1CCCN1C(=O)[C@H](CCCCN)NC(=O)[C@@H]1CCCN1C(=O)[C@H](CCCN=C(N)N)NC(=O)CNC(=O)[C@@H]1CCCN1C(=O)[C@H](Cc1ccccc1)NC(=O)[C@@H]1CCCN1C(=O)[C@H](CCCN=C(N)N)NC(=O)[C@@H]1CCCN1C(=O)[C@H](CCCN=C(N)N)NC(=O)CNC(=O)[C@@H]1CCCN1C(=O)[C@H](CO)NC(=O)[C@@H]1CCCN1C(=O)[C@H](Cc1c[nH]c2ccccc12)NC(=O)[C@H](CCCN=C(N)N)NC(=O)[C@@H](N)CO)C(=O)N[C@@H](Cc1ccccc1)C(=O)O` [SRWPSPGRPRPFPGRPKPIF] the MIC [2] was over 100 µM, the MIC [12] was over 100 µM and the MIC (Escherichia coli HB101) was at least 35.4 µM. The MIC [25] was at least 100 µM and the MIC [26] was 17.7 µM (≈ 41.2 µg/mL).
